From the METLIN SMRT retention time set (Domingo-Almenara et al. 2019)

Experiment: gradient 5% acetonitrile 3 min, to 50% in 2 min, to 85% in 15 min, held 3 min, 100 µL/min
Conditions: column: Zorbax Extend-C18 2.1 x 50 mm; eluents: water / acetonitrile, 0.1% formic acid
Method in brief: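 Values are retention times taken from adduct peaks that software picked and an analyst inspected. The pure standards were run as mixtures of ~100 molecules on HPLC linked to a quadrupole time-of-flight mass spectrometer, in positive and negative ionization mode. A Zorbax Extend-C18 column (2.1 × 50 mm, 1.8 μm) was used at 100 μL/min with water and acetonitrile, each including 0.1% formic acid.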

RP-LC retention time [s] | SMILES
824 | O=C(c1ccc(F)c(Cl)c1)N(CC1CCOC1)C1CC1 (configuration not stated)
696 | Cc1ccc(OCc2nc(C)c(C(=O)N3CCC(C(N)=O)CC3)s2)cc1
694 | COc1ccc(CNC(=O)Nc2cc3c(cc2N2CCOCC2)n(C)c(=O)n3C)cc1
808 | Cc1ccc2[nH]cc(CCNC(=O)CC3CCN(C(=O)NC4CCCCC4)CC3)c2c1
1040 | COc1ccc(-c2noc(Cc3nnc(-c4cccc(C)c4)o3)n2)cc1F
960 | Cn1c(=O)c2cc(C(=O)Nc3ccc(F)cc3)cnc2n(-c2ccc(F)cc2)c1=O
586 | CN(C)c1ccc2c(c1)CN(C(=O)c1ccsc1)CCO2
876 | CCCc1nc(-c2c(C)cc(C)nc2NC(=O)C2CCCCC2)no1
888 | CCCS(=O)(=O)c1nc2ccc(NS(=O)(=O)c3ccc4c(c3)OCCO4)cc2s1
593 | O=C(NCCCN1CCc2ccccc2C1)C1CCCN(c2nnc(-n3cccc3)s2)C1 (configuration not stated)
606 | NC(=O)C1CCN(C(=O)CSc2nnc(-c3sc4ncccc4c3N)n2C2CC2)CC1
981 | Cn1cc(C2=CCN(S(=O)(=O)c3ccc(F)c(F)c3)CC2)c2cccnc21
738 | COc1ccc(CC(=O)N2C[C@@H]3C[C@H]2C[C@@H]3NC(=O)c2ccccc2)c(Cl)c1
1050 | COc1cccc(Cn2cnc3c(-c4ccc(F)cc4)csc3c2=O)c1
786 | CCn1cc(CCNS(=O)(=O)c2ccc(C)cc2)c2cccnc21
789 | Cc1ccc(-c2cn3cccnc3n2)cc1NC(=O)CCC1CCCCC1
619 | CCCn1cnc2cc(CNC(=O)Cc3ccsc3)ccc21
623 | CCN1CCN(C(=O)c2nnc(-c3ccc(S(=O)(=O)N4CCCC4)cc3)o2)CC1
593 | O=C(NC1CCCN(c2cc(-c3ccncc3)[nH]n2)C1)c1cccc(F)c1 (configuration not stated)
843 | Cc1cc2c(cc1S(=O)(=O)N1CCCC1C(=O)Nc1ccc(Cl)cc1F)OCC(=O)N2 (configuration not stated)
998 | O=S(=O)(Nc1cccc(C(F)(F)F)c1)c1ccc2c(c1)-c1oncc1CO2
953 | Cc1cccc(Cn2c(=O)n(CCNC(=O)C3(c4ccccc4)CC3)c3ncccc32)c1

RP-LC retention time [s] | SMILES
1380 | COc1ccc(-n2c(=O)c(C(=O)NC3CCCCCC3)c(O)c3cccnc32)cc1
608 | O=C(c1ccccn1)N1CCCCC1c1nncn1CC1CC1 (configuration not stated)
887 | CCN1c2ccc(C)cc2C(=O)NC12CCN(C(=O)Cc1ccc(C)cc1)CC2
1200 | COc1ccc(OC)c(NC(=O)c2cc3nc(-c4cccs4)cc(C(F)(F)F)n3n2)c1
865 | CC(C)n1cnc(S(=O)(=O)N2CCCC(C(=O)Nc3cccc4c3CCCC4)C2)c1 (configuration not stated)
770 | COc1cccc(CNC(=O)Cn2c(N3CCCC3)nc(C)cc2=O)c1
846 | COc1ccc(-c2noc(Cn3cnc4c(oc5ccccc54)c3=O)n2)cc1OC
674 | CC(C)c1nc2c(c(=O)n1CC(=O)Nc1ccccc1)CCN(Cc1ccccc1)C2
824 | O=C(Nc1ccc(Cl)cc1F)C1Oc2ccccc2NC1=O (configuration not stated)
673 | O=C(c1ccco1)N1CCCC1c1nc(C2CCOCC2)no1 (configuration not stated)
854 | Cc1ccc(NC(=O)c2nc3nc(C)cc(C(F)F)n3n2)c(C)c1
898 | O=C(COc1ccc2ccccc2c1)NCC(O)c1ccc(C(F)(F)F)cc1 (configuration not stated)
629 | Cc1cc(OCC(=O)NCCN(C)C)cc(C)c1Cl
1370 | Cc1nc(-c2cc(S(=O)(=O)N3CCN(c4cccc(C)c4C)CC3)c(C)s2)cs1
672 | Cn1cc(-c2ccncc2)cc1C(=O)NCc1cccc(Br)c1
1010 | CC(C)Oc1ccccc1Cn1c(=O)oc2ccccc21
890 | CC(C)N1CCN(c2cc(-c3nc(-c4cccc(F)c4)no3)c3ccccc3n2)CC1
666 | CCN(CC)c1ncnc2c(-c3ccccc3)cn(CC(=O)NCC3CCCO3)c12 (configuration not stated)
751 | O=C(Nc1nccs1)c1cccc(NS(=O)(=O)c2ccc(F)cc2)c1
1240 | COc1nc2ccccc2nc1N1CCCC(C(=O)Nc2ccc(Cl)cc2)C1 (configuration not stated)
1030 | COc1cc(OC)cc(-c2nc(-c3cn(Cc4cccc(F)c4)nn3)no2)c1
751 | CC1=C(c2ccc(F)cc2)S(=O)(=O)N=C1N1CCCN(C(=O)C(C)C)CC1

RP-LC retention time [s] | SMILES
812 | CC1(C(=O)NCc2ccc3c(c2)OCO3)CCN(C(=O)Nc2ccccc2C(F)(F)F)CC1
715 | Cn1nc(-c2ccncc2)nc1C1CN(S(=O)(=O)c2cccc(C(F)(F)F)c2)C1
662 | CC(C)c1ccc(OCC(=O)Oc2ccc3c(c2)ncn3C)cc1
1100 | Cc1ccc(CN2C(=O)N(c3cccc(F)c3)c3ncccc3S2(=O)=O)cc1
604 | CN(C)C(=O)CC1CCOC2(CCN(C(=O)CCn3cnnn3)CC2)C1 (configuration not stated)
961 | COc1cccc(CNC(=O)C2(C)CCCN(C(=O)Nc3cc(C)cc(C)c3)C2)c1 (configuration not stated)
1150 | Cc1ccc(-c2cc3c(N4CCCC(C(=O)NCCC5=CCCCC5)C4)nccn3n2)c(C)c1 (configuration not stated)
616 | CNC(=O)c1ccc(-c2nc3cc(NS(=O)(=O)c4ccccc4F)ccc3n2C)cc1
873 | Cc1ccc(-c2cn3ccn(-c4cccc(F)c4)c(=O)c3n2)cc1C
698 | COc1cc(C(=O)NC2CCN(c3cc(-c4cccs4)[nH]n3)C2)cc(OC)c1OC (configuration not stated)
631 | Cc1cccc(C(=O)NCC(=O)Nc2nc3ccccc3[nH]2)c1
804 | Cc1cc(C(=O)N2C[C@@H](C)[C@H](c3nc(-c4ccccc4)no3)C2)n[nH]1
709 | COc1cccc(N2CCN(C(=O)C3CCN(C(=O)C4Sc5ccccc5NC4=O)CC3)CC2)c1 (configuration not stated)
794 | CC(C)c1noc(-c2cccnc2N2CCCN(Cc3cccc(C(F)(F)F)c3)CC2)n1
605 | COc1ccc(OC)c(NC(=O)C2c3cc(OC)c(OC)cc3C(=O)N(C)C2c2cccnc2)c1 (configuration not stated)
861 | COc1cccc(Oc2nccnc2N2CCC(C(=O)NCCC(C)C)CC2)c1
864 | CCOC(=O)c1ccc(NC(=O)COc2cc(C)nc(N3CCN(c4ccccc4)CC3)n2)cc1
738 | COc1ccc(N2CCN(C(=O)C3CCCN(c4ncnc5c4nc4n5CCCCC4)C3)CC2)cc1 (configuration not stated)
1070 | O=C1CC(c2noc(-c3ccc(F)cc3)n2)CN1c1ccc(Cl)cc1 (configuration not stated)
794 | O=C(Cn1nc2c(cc1=O)CCCCC2)NCCc1c[nH]c2ccc(F)cc12
963 | COc1ccc(N2CC(c3noc(-c4cc(Cl)ccc4OC)n3)CC2=O)cc1 (configuration not stated)
1030 | Cc1ccccc1Nc1c(-c2ccc(Cl)cc2)nc2cnccn12

RP-LC retention time [s] | SMILES
891 | O=C(NCc1ccco1)N1c2ccccc2CC1c1nc(C2CC2)no1 (configuration not stated)
760 | Fc1ccc(CN(C2=NCCN2)c2c(Cl)cccc2Cl)cc1
852 | O=c1c2ncccc2n(Cc2c(F)cccc2Cl)c(=O)n1Cc1cccnc1
693 | COc1ccc(NC(=O)CN2C(=O)C3CCCN3C(=O)c3ccc(F)cc32)cc1 (configuration not stated)
978 | COc1cccc(-c2noc(Cn3c(=O)n(-c4ccccc4C)c(=O)c4sccc43)n2)c1
723 | CCOc1ccccc1NC(=O)N1CCCC(Cn2cnc3cccnc32)C1 (configuration not stated)
814 | Cc1cc(C)c(S(=O)(=O)N2CCC[C@@H]2C(=O)NCCc2csc(C)n2)c(C)c1
646 | CCn1ccc2cc(S(=O)(=O)N3CCCC(C(=O)N4CCN(C)CC4)C3)ccc21 (configuration not stated)
828 | COc1cc(=O)n(-c2ccccc2)nc1C(=O)NC(c1ccccc1)c1ccccc1
646 | O=C1CC(c2ccccc2)N1 (configuration not stated)
654 | CN(Cc1nc2cc(C(=O)N3CCCC3)ccc2n1C)C(=O)Nc1ccc(Cl)cc1
687 | O=C(CN1CCC2(CC1)N=C(c1ccccc1)C(=O)N2)Nc1cccc(Br)c1
762 | Cc1ccccc1C(=O)NCCCn1cccc1
556 | CN(C)C[C@@H]1CN(C2CCOCC2)C[C@H]1NC(=O)C1(c2ccccc2)CC1
671 | O=C(N[C@H]1C[C@@H]2C[C@H]1N(C(=O)c1ccco1)C2)c1ccccc1
933 | O=C(NCCc1ccsc1)c1ccc(Cl)c(Cl)c1
710 | CCOc1ccc(NC(=O)c2oc3ccc(F)cc3c2C)c2cccnc12
983 | CCOc1ccccc1NC(=O)N1CCCC(C)(C(=O)NCc2ccc(F)cc2)C1 (configuration not stated)
675 | CN(Cc1ccccc1)c1ncc(C(=O)O)c(-c2ccncc2)n1

SMILES | RP-LC retention time [s]
CCOC(=O)c1c(N)n(Cc2cccc(OC)c2)c2nc3ccccc3nc12 | 750
C=C(C)[C@H]1O[C@H]2CC[C@@]3(C)[C@@](O)(CC[C@H]4[C@@H]5OC(C)(C)[C@H]6C[C@@H]7C(=C)Cc8c(Cl)cc9[nH]c(c5c9c8[C@@]76O)[C@@]43C)[C@]23O[C@@H]3[C@H]1O | 1180
